# Like-named read-outs stand apart in the source and are kept apart here. Marks after values point to notes of the source that are not given here.
# Key:
# CYP1A2 = CYP1A2 Induction in Human Hepatocytes; format: in vitro ADME
# Protocol: CYP activity was determined by monitoring metabolite formation of specific CYP probe substrates (phenacetin for CYP1A2 and testosterone for CYP3A4) using LC-MS/MS. CYP messenger ribonucleic acid (mRNA) was analyzed by RT-PCR to confirm CYP induction potential.
# Purified human B cells = assay: Human B Cell Proliferation Assay; format: cell-based
# Excerpt: B cells are highly dependent on PI3Kδ for their development and activity. […] has an essential and non-redundant role in signaling via the B cell receptor (BCR) complex. Both IgM induced Ca+ influx and proliferation are attenuated in mice lacking PI3K-δ or with PI3K-δ inhibitors. PI3K-gamma has no role to play in any B cell activity. The specificity of the BCR complex for the […] to evaluate the extent of […] inhibition in cells. Purified human B cells are stimulated with anti-IgM in the presence of test compounds. Four days later cell viability/proliferation was measured using cell titer-glo to measure the ATP content of the cells in the well. Lack of or reduced proliferation is a measure of the extent of […].
# P-gp (MDR1) = biological target: T1, P-gp (MDR1) (Homo sapiens, UniProt P08183); assay: Efflux in MDCK-MDR1 cell line; format: in vitro ADME; conditions: human; for recovery at 1 h, 1 μM: MDCK-MDR1, MDCK-MDR1, 1 μM
# T1 construct: expressed in transfected cells; host or cells: MDCK (Madin-Darby canine kidney) cells, MDCK-MDR1
# T1 sequence (P08183 whole entry): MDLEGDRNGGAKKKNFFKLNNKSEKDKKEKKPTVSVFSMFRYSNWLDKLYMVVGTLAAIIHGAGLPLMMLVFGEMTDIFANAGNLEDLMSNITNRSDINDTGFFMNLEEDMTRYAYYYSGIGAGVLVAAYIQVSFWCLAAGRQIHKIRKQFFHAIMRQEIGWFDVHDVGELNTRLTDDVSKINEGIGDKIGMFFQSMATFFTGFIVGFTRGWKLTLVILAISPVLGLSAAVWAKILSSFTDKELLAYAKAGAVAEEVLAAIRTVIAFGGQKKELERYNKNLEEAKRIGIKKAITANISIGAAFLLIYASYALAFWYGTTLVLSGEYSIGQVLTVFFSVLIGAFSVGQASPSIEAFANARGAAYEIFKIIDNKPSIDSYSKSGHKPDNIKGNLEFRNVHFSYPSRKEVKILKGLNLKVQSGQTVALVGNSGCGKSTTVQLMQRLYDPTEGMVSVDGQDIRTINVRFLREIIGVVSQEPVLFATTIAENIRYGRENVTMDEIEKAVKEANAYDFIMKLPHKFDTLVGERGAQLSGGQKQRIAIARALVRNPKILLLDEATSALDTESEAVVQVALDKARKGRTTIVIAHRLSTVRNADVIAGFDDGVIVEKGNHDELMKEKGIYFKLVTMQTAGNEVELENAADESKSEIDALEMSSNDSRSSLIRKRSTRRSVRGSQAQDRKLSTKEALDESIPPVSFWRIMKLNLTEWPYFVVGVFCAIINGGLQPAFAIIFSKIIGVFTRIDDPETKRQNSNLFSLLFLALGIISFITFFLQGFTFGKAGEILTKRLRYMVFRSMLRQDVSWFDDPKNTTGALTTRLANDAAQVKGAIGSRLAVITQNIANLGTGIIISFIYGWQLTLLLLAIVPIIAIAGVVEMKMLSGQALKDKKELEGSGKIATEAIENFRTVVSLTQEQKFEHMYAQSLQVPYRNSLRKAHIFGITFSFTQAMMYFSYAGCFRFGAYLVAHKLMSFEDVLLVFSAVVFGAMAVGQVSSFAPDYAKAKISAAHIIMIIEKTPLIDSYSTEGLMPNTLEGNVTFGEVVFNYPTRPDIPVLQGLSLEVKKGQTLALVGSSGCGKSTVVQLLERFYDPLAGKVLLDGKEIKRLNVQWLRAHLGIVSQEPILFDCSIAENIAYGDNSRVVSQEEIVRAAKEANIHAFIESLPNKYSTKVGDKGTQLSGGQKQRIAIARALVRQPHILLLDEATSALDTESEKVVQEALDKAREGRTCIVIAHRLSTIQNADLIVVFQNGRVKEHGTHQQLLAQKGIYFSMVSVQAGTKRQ
# Protocol: The permeability of Compound 1 was evaluated using both Caco-2 and MadinDarby canine kidney (MDCK) wild-type cell lines. Cells were exposed to drug in buffer on the apical side (measuring permeability in the A-to-B direction) or basolateral side (measuring permeability in the B-to-A direction) and incubated at 37° C. for one hour. Permeability was high in the A-to-B direction in both the MDCK and Caco-2 cell lines (33 and 18×10^−6 cm/sec, respectively).
# An assessment of whether Compound 1 is a substrate of efflux transporters was conducted by using the MDCK cell line that is overexpressed with human P-gp (MDR).
# [1] = Tissue Distribution in Rats; format: in vivo, rat; conditions: 5 mg/kg oral; for Kp at 0.5 h / Kp at 0.5 hr: 0.5 hr post dose
# Protocol: Compound 1 distributed well into most tissues after an oral dose of 5 mg/kg administered to male rats. […] The tissue to plasma ratio followed the trend of liver>kidney>heart>lung>spleen>brain>CSF. The elimination kinetics of Compound 1 in each examined organ followed plasma kinetics. There was no evidence for tissue accumulation of Compound 1 after a single dose administration.
smiles,measurement,setting,value
"Cc1cc(-c2cncc([C@@H](O)C(F)(F)F)c2)nc2c1C(=O)N(c1cnn(CC(F)F)c1)C2(C)C [Compound 1, (R)-6-(1-(2,2-difluoroethyl)-1H-pyrazol-4-yl)-4,7,7-trimethyl-2-(5-(2,2,2-trifluoro-1-hydroxyethyl)pyridin-3-yl)-6,7-dihydro-5H-pyrrolo[3,4-b]pyridin-5-one]",CYP1A2 mRNA message,"CYP1A2; 0.5 μM, lot 8123",0.6 (0.6)* fold change
same,Phenacetin O-Dealkylation,"CYP1A2; 0.5 μM, lot 8123",0.6 (0.6)* fold change
same,CYP1A2 mRNA message,"CYP1A2; 0.5 μM, lot LMP",0.6 fold change
same,Phenacetin O-Dealkylation,"CYP1A2; 0.5 μM, lot LMP",0.7 fold change
same,CYP1A2 mRNA message,"CYP1A2; 0.5 μM, lot YOW",0.5 fold change
same,Phenacetin O-Dealkylation,"CYP1A2; 0.5 μM, lot YOW",1.1 fold change
same,CYP1A2 mRNA message,"CYP1A2; 1.0 μM, lot 8123",0.5 (0.5) fold change
same,Phenacetin O-Dealkylation,"CYP1A2; 1.0 μM, lot 8123",0.5 (0.5) fold change
same,CYP1A2 mRNA message,"CYP1A2; 1.0 μM, lot LMP",0.6 fold change
same,Phenacetin O-Dealkylation,"CYP1A2; 1.0 μM, lot LMP",0.8 fold change
same,CYP1A2 mRNA message,"CYP1A2; 1.0 μM, lot YOW",0.4 fold change
same,Phenacetin O-Dealkylation,"CYP1A2; 1.0 μM, lot YOW",1.1 fold change
same,CYP1A2 mRNA message,"CYP1A2; 5.0 μM, lot 8123",0.5 fold change
same,Phenacetin O-Dealkylation,"CYP1A2; 5.0 μM, lot 8123",0.8 fold change
same,CYP1A2 mRNA message,"CYP1A2; 5.0 μM, lot LMP",0.7 fold change
same,Phenacetin O-Dealkylation,"CYP1A2; 5.0 μM, lot LMP",0.9 fold change
same,CYP1A2 mRNA message,"CYP1A2; 5.0 μM, lot YOW",0.6 fold change
same,Phenacetin O-Dealkylation,"CYP1A2; 5.0 μM, lot YOW",1.1 fold change
same,CYP1A2 mRNA message,"CYP1A2; 10.0 μM, lot 8123",1.2 fold change
same,Phenacetin O-Dealkylation,"CYP1A2; 10.0 μM, lot 8123",0.7 fold change
same,CYP1A2 mRNA message,"CYP1A2; 10.0 μM, lot LMP",0.8 fold change
same,Phenacetin O-Dealkylation,"CYP1A2; 10.0 μM, lot LMP",1.0 fold change
same,CYP1A2 mRNA message,"CYP1A2; 10.0 μM, lot YOW",1.3 fold change
same,Phenacetin O-Dealkylation,"CYP1A2; 10.0 μM, lot YOW",1.2 fold change
same,CYP1A2 mRNA message,"CYP1A2; 20.0 μM, lot 8123",2.6 fold change
same,Phenacetin O-Dealkylation,"CYP1A2; 20.0 μM, lot 8123",1.2 fold change
same,CYP1A2 mRNA message,"CYP1A2; 20.0 μM, lot LMP",0.7 fold change
same,Phenacetin O-Dealkylation,"CYP1A2; 20.0 μM, lot LMP",1.1 fold change
same,CYP1A2 mRNA message,"CYP1A2; 20.0 μM, lot YOW",0.8 fold change
same,Phenacetin O-Dealkylation,"CYP1A2; 20.0 μM, lot YOW",1.3 fold change
same,Phenacetin O-Dealkylation,"CYP1A2; 30.0 μM, lot 8123",1.3 (NR^2) fold change
same,CYP1A2 mRNA message,"CYP1A2; 30.0 μM, lot LMP",1.4 fold change
same,Phenacetin O-Dealkylation,"CYP1A2; 30.0 μM, lot LMP",1.1 fold change
same,Phenacetin O-Dealkylation,"CYP1A2; 30.0 μM, lot YOW",1.5 (NR^2) fold change
same,"change in CYP1A2 activity and mRNA levels, % of the positive control","CYP1A2; all three hepatocyte lots, 48 hour exposure",less than 20%
same,selectivity window over PI3K-δ,Purified human B cells; B cell proliferation,11 fold
same,IC50,"Purified human B cells; Homo sapiens, 96 h, B cell/IgM/Proliferation, four days, read-out: IC50 Avg +/− SD",3.05 ± 0.44 µM
same,selectivity over PI3K-delta in cell based assays,Purified human B cells; summary,12 fold
same,"recovery at 1 h, 1 μM",P-gp (MDR1); A > B,97%
same,"recovery at 1 h, 1 μM",P-gp (MDR1); B > A,87%
same,"efflux ratio at 1 h, 1 μM","P-gp (MDR1); MDCK-MDR1, 1 μM",35.1
same,"Papp A→B at 1 h, 1 μM","P-gp (MDR1); MDCK-MDR1, 1 μM, A > B",0.98 ×10⁻⁶ cm/s
same,"Papp B→A at 1 h, 1 μM","P-gp (MDR1); MDCK-MDR1, 1 μM, B > A",34.3 ×10⁻⁶ cm/s
same,"Cmax, brain",[1]; male rats,111 ng/g
same,"Cmax, kidney",[1]; male rats,4770 ng/g
same,"Cmax, liver",[1]; male rats,11400 ng/g
same,tissue to plasma ratio trend,"[1]; male rats, in words",liver>kidney>heart>lung>spleen>brain>CSF
same,Kp at 0.5 h,"[1]; male, CSF (relative to plasma), rat, read-out: Tissue to Plasma Ratio, CSF",0.01
same,Kp at 2 h,"[1]; male, CSF (relative to plasma), rat, 2 hr post dose, read-out: Tissue to Plasma Ratio, CSF",0.01
same,Kp at 7 h,"[1]; male, CSF (relative to plasma), rat, 7 hr post dose, read-out: Tissue to Plasma Ratio, CSF",0.01
same,Kp at 24 h,"[1]; male, CSF (relative to plasma), rat, 24 hr post dose, read-out: Tissue to Plasma Ratio, CSF",0.01
same,Kp at 7 h,"[1]; male, brain (relative to plasma), rat, 7 hr post dose, read-out: Tissue to Plasma Ratio, Brain",0.05
same,Kp at 24 h,"[1]; male, brain (relative to plasma), rat, 24 hr post dose, read-out: Tissue to Plasma Ratio, Brain",0.06
same,Kp at 0.5 h,"[1]; male, brain, rat, read-out: Tissue to Plasma Ratio, Brain",0.04
same,Kp at 2 h,"[1]; male, brain, rat, 2 hr post dose, read-out: Tissue to Plasma Ratio, Brain",0.07
same,Kp at 48 h,"[1]; male, brain, rat, 48 hr post dose, read-out: Tissue to Plasma Ratio, Brain",0.07
same,Kp at 0.5 hr,"[1]; male, heart, rat, read-out: Tissue to Plasma Ratio, Heart",0.98
same,Kp at 2 hr,"[1]; male, heart, rat, 2 hr post dose, read-out: Tissue to Plasma Ratio, Heart",1.67
same,Kp at 7 hr,"[1]; male, heart, rat, 7 hr post dose, read-out: Tissue to Plasma Ratio, Heart",1.4
same,Kp at 24 hr,"[1]; male, heart, rat, 24 hr post dose, read-out: Tissue to Plasma Ratio, Heart",1.46
same,Kp at 48 hr,"[1]; male, heart, rat, 48 hr post dose, read-out: Tissue to Plasma Ratio, Heart",1.39
same,Kp at 0.5 hr,"[1]; male, kidney, rat, read-out: Tissue to Plasma Ratio, Kidney",1.75
